According to PMC11603219, “Novel Dibenzoazepine-Substituted Triazole Hybrids as Cholinesterase and Carbonic Anhydrase Inhibitors and Anticancer Agents: Synthesis, Characterization, Biological Evaluation, and In Silico Studies” (ACS Omega, 2024):

Tests used:
hCA I = hCA I (Homo sapiens, UniProt P00915); assay: biochemical; type: biochemical
hCA II = hCA II (Homo sapiens, UniProt P00918); assay: biochemical; type: biochemical
AChE = AChE (Homo sapiens, UniProt P22303); assay: biochemical; type: biochemical
AChE, sequence (P22303 32-614): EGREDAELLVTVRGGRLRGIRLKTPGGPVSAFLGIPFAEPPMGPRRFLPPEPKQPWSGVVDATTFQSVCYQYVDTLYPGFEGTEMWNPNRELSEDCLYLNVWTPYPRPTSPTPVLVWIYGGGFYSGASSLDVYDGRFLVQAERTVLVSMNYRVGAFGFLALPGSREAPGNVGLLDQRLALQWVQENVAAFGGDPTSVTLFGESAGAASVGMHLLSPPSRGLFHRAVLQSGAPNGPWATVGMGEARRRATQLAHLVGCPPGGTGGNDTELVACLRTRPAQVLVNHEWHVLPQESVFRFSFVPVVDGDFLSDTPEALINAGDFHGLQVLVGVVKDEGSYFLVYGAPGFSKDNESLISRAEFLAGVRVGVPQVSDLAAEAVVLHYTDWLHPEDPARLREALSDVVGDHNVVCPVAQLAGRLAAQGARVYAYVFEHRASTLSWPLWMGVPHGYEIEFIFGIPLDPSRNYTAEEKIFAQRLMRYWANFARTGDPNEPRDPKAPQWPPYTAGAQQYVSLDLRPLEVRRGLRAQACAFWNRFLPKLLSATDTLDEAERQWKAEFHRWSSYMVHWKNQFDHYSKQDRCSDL

BChE from equine serum = biological target: T1, BChE from equine serum (Equus caballus, UniProt P81908); assay: biochemical; type: biochemical
T1 construct: from tissue; host or cells: equine serum
T1 sequence (P81908 whole entry): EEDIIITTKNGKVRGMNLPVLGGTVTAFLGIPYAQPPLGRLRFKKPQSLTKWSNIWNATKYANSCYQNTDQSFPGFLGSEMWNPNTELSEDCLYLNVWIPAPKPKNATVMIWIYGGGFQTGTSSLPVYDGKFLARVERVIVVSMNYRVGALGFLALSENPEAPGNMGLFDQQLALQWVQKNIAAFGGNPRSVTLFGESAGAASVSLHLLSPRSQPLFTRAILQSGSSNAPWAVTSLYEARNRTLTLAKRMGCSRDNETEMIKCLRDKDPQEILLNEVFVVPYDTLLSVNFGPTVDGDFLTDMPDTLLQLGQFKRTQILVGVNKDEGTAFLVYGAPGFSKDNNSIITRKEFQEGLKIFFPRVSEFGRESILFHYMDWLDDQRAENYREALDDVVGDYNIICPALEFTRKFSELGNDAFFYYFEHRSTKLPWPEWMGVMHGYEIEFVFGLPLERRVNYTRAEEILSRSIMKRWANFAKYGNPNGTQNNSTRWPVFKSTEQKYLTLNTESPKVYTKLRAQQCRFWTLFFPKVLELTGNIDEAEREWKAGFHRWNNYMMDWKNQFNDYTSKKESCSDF
Experimental: All of the measurements were repeated thrice. AChE and BChE activity were assessed using a modified version of the Ellman method.[48] The measurement of AChE/BChE activity was conducted with acetylthiocholine iodide/butyrylthiocholine iodide as substrates along with 5,5-dithiobis (2-nitrobenzoic) acid.

BT-549 cells [1] = assay: MTT cytotoxicity assay, BT-549; type: cell-based, human; conditions: 96 h treatment
MDA-MB-231 cells = assay: MTT cytotoxicity assay, MDA-MB-231; type: cell-based; conditions: Homo sapiens, 72 h treatment
BT-549 cells [2] = assay: Colony formation inhibition assay; type: cell-based, human; conditions: for colony formation inhibition: 10 μM, 20 μM, and 30 μM, 7–10 days
[3] = ratio of Ki versus tacrine (TAC/THA)

hCA I, sequence (P00915 whole entry): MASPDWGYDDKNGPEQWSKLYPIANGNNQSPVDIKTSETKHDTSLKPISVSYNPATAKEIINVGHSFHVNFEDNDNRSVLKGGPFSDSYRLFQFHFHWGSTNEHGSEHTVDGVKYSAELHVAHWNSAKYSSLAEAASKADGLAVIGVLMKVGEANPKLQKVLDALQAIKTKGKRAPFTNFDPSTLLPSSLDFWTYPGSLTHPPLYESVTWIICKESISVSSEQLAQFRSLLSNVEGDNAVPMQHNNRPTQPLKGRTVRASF

For `C1=Cc2ccccc2N(Cc2cn(Cc3ccccc3)nn2)c2ccccc21` [Compound 12, 5-((1-Benzyl-1H-1,2,3-triazol-4-yl)methyl)-5H-dibenzo[b,f]azepine], the Ki (hCA I) was 48.8 ± 4.68 nM, the Ki (hCA II) was 40.5 ± 5.85 nM and the Ki (AChE) was 28.9 ± 3.52 nM. The Ki (BChE from equine serum) was 48.8 ± 8.62 nM, the IC50 (BT-549 cells [1]; Homo sapiens, BT-549, 96 h) was 33500 ± 3030 nM and the IC50 (MDA-MB-231 cells) was 12500 ± 1920 nM.

`C1=Cc2ccccc2N(Cc2cn(-c3cccc4ccccc34)nn2)c2ccccc21` [Compound 13, 5-((1-(Naphthalen-1-yl)–1H-1,2,3-triazol-4-yl)methyl)-5H-dibenzo[b,f]azepine] gave a Ki (hCA I) of 62.1 ± 8.53 nM, a Ki (hCA II) of 28.8 ± 4.64 nM and a Ki (AChE) of 14.1 ± 3.81 nM. For the same compound, the “fold more active than tacrine for AChE” value (AChE; [3]) was 5.49 fold, the Ki (BChE from equine serum) was 1.15 ± 0.15 nM and the “times more inhibition effect than compound 12, BChE” value (BChE from equine serum; ratio of Ki versus compound 12) was “approximately 42.48 times”. For the same compound, the “fold more active than tacrine for BChE” value (BChE from equine serum; [3]) was 49.70 fold, the “times more inhibition effect, BChE, compound 18 comparison” value (BChE from equine serum; ratio of Ki, compound 13 and compound 18) was 34.04 times and the IC50 (BT-549 cells [1]; Homo sapiens, BT-549, 96 h) was > 40000 nM. The IC50 (MDA-MB-231 cells) was > 125000 nM.

With `C1=Cc2ccccc2N(Cc2cn(-c3cccnc3)nn2)c2ccccc21` [Compound 14, 5-((1-(Pyridin-3-yl)-1H-1,2,3-triazol-4-yl)methyl)-5H-dibenzo[b,f]azepine] the Ki (hCA I) was 29.9 ± 5.93 nM, the “fold more active than acetazolamide for hCA I” value (hCA I; ratio of Ki versus AZA) was 4.16 fold and the Ki (hCA II) was 17.7 ± 1.54 nM. The “fold more active than acetazolamide for hCA II” value (hCA II; ratio of Ki versus AZA) was 5.79 fold, the Ki (AChE) was 21.2 ± 5.87 nM and the Ki (BChE from equine serum) was 7.65 ± 1.49 nM. The IC50 (BT-549 cells [1]) was 16600 ± 970 nM, the IC50 (BT-549 cells [1]; Homo sapiens, BT-549, 96 h) was ≤ 20000 nM and the IC50 (MDA-MB-231 cells) was > 75000 nM. The “concentration at which BT-549 colonies were inhibited/suppressed” value (BT-549 cells [2]) was 10 µM and the colony formation inhibition (BT-549 cells [2]) was “suppressed the colonies”.

Work on `COc1ccc(-n2cc(CN3c4ccccc4C=Cc4ccccc43)nn2)cc1` [Compound 15, 5-((1-(4-Methoxyphenyl)-1H-1,2,3-triazol-4-yl)methyl)-5H-dibenzo[b,f]azepine] yielded a Ki (hCA I) of 54.7 ± 9.63 nM, a Ki (hCA II) of 39.1 ± 2.17 nM and a Ki (AChE) of 24.1 ± 0.45 nM. For the same compound, the Ki (BChE from equine serum) was 4.11 ± 0.46 nM, the IC50 (BT-549 cells [1]; Homo sapiens, BT-549, 96 h) was 26800 ± 4600 nM and the IC50 (MDA-MB-231 cells) was > 150000 nM. For the same compound, the “concentration at which BT-549 colonies were inhibited/suppressed” value (BT-549 cells [2]) was 20 µM and the colony formation inhibition (BT-549 cells [2]) was “suppressed the colonies”.

Compound `O=c1ccc2ccc(OCCn3cc(CN4c5ccccc5C=Cc5ccccc54)nn3)cc2o1` [Compound 16, 7-(2-(4-((5H-Dibenzo[b,f]azepin-5-yl)methyl)-1H-1,2,3-triazol-1-yl)ethoxy)-2H-chromen-2-one] has a Ki (hCA I) of 122 ± 20.2 nM, a Ki (hCA II) of 54.6 ± 1.99 nM and a Ki (AChE) of 17.5 ± 2.19 nM. For the same compound, the Ki (BChE from equine serum) was 11.2 ± 1.55 nM, the IC50 (BT-549 cells [1]) was 17700 ± 2540 nM and the IC50 (BT-549 cells [1]; Homo sapiens, BT-549, 96 h) was ≤ 20000 nM. For the same compound, the IC50 (MDA-MB-231 cells) was > 150000 nM and the colony formation inhibition (BT-549 cells [2]) was “suppressed the colonies”.

For `NS(=O)(=O)c1ccc(-n2cc(CN3c4ccccc4C=Cc4ccccc43)nn2)cc1` [Compound 17, 4-(4-((5H-Dibenzo[b,f]azepin-5-yl)methyl)-1H-1,2,3-triazol-1-yl)benzenesulfonamide], the Ki (hCA I) was 40.5 ± 11.1 nM, the Ki (hCA II) was 56.7 ± 11.5 nM and the Ki (AChE) was 19 ± 5.44 nM. For the same compound, the Ki (BChE from equine serum) was 15.3 ± 1.12 nM, the IC50 (BT-549 cells [1]) was 17400 ± 3090 nM and the IC50 (BT-549 cells [1]; Homo sapiens, BT-549, 96 h) was ≤ 20000 nM. For the same compound, the IC50 (MDA-MB-231 cells) was 36500 ± 1620 nM, the “concentration at which BT-549 colonies were inhibited/suppressed” value (BT-549 cells [2]) was 20 µM and the colony formation inhibition (BT-549 cells [2]) was “suppressed the colonies”.

`O=[N+]([O-])c1ccc(-n2cc(CN3c4ccccc4C=Cc4ccccc43)nn2)cc1` [Compound 18, 5-((1-(4-Nitrophenyl)-1H-1,2,3-triazol-4-yl)methyl)-5H-dibenzo[b,f]azepine] was tested, and the Ki (hCA I) was 118 ± 21 nM, the Ki (hCA II) was 69.7 ± 5.93 nM and the Ki (AChE) was 44.7 ± 9.61 nM. For the same compound, the Ki (BChE from equine serum) was 39.1 ± 8.82 nM, the IC50 (BT-549 cells [1]; Homo sapiens, BT-549, 96 h) was > 40000 nM and the IC50 (MDA-MB-231 cells) was > 150000 nM.

`COc1cc(-n2cc(CN3c4ccccc4C=Cc4ccccc43)nn2)cc(OC)c1OC` [Compound 19, 5-((1-(3,4,5-Trimethoxyphenyl)-1H-1,2,3-triazol-4-yl)methyl)-5H-dibenzo[b,f]azepine] gave a Ki (hCA I) of 94 ± 15.5 nM, a Ki (hCA II) of 61.4 ± 9.11 nM and a Ki (AChE) of 34.5 ± 8.54 nM. For the same compound, the Ki (BChE from equine serum) was 2.22 ± 0.17 nM, the IC50 (BT-549 cells [1]) was 18100 ± 2140 nM and the IC50 (BT-549 cells [1]; Homo sapiens, BT-549, 96 h) was ≤ 20000 nM. For the same compound, the IC50 (MDA-MB-231 cells) was > 150000 nM, the “concentration at which BT-549 colonies were inhibited/suppressed” value (BT-549 cells [2]) was 20 µM and the colony formation inhibition (BT-549 cells [2]) was “suppressed the colonies”.

`Oc1ccccc1-n1cc(CN2c3ccccc3C=Cc3ccccc32)nn1` [Compound 20, 2-(4-((5H-Dibenzo[b,f]azepin-5-yl)methyl)-1H-1,2,3-triazol-1-yl)phenol] was tested, and the Ki (hCA I) was 80.4 ± 15.6 nM, the Ki (hCA II) was 89.4 ± 4.92 nM and the Ki (AChE) was 22.8 ± 4.78 nM. The Ki (BChE from equine serum) was 16.2 ± 2.43 nM, the IC50 (BT-549 cells [1]; Homo sapiens, BT-549, 96 h) was 36200 ± 3770 nM and the IC50 (MDA-MB-231 cells) was > 100000 nM.
